# Key:
# [1] = system: mouse neurosphere-derived oligodendrocyte precursor cells (Nph-OPCs); assay: Morphology-based OPC differentiation assay (branches, outgrowth; high-content imaging); type: cell-based; conditions: Mus musculus, Oligodendrocyte precursor cell, 72 h, read-out: IC50, generation of branches in OPC differentiation assay
# Method: Neurospheres (Nph) were prepared from embryos at 14.5 days of gestation obtained from timed pregnant females of C57/Bl6 mice, as previously described ([Kornblum, Yanni, Easterday, & Seroogy, 2000]; [Pedraza, Monk, Lei, Hao, & Macklin, 2008]). In brief, after separation of meninges and cerebellum, cerebrum tissue was mechanically triturated with a 1-ml micropipette until total tissue dissociation was achieved, filtered through a 70 -µm cell strainer (Fisher Scientific, Pittsburgh, PA), and plated in 25-cm^2 plastic culture flasks (2 brains/flask). Nph proliferation media (NPM) consisted of Dulbecco’s Modified Eagle Medium (DMEM)/F12, B27 neuronal supplement (Gibco, Baltimore, MD) and 10 ng/ml […] (EGF; Sigma, St. Louis, MO). After 48 to 72 hr, floating Nphs were passaged at a 1 : 1 ratio into 75-cm^2 culture flasks. After a further 48 to 72 hr, they were passaged into 150-cm^2 flasks. Subsequent passages were performed every 3 to 4 days at a ratio of 1 : 2 or 1 : 3 in the same media, and Nph were used to generate OPCs for no more than 12 passages.
# OPCs were generated by chemical disaggregation of Nph with a mouse neural progenitor dissociation kit following the manufacturer instructions (NeuroCult, StemCell Technologies, AB, Canada). The single-cell suspension was then filtered through a 40 -µm cell strainer and plated on poly-D-lysine (PDL)-coated plates. […]
# To determine the effects of ROCK inhibition on OPCs, we developed a high-content image morphological analysis of OPC differentiation using mouse embryonic neural progenitor-derived OPCs (Nph-OPCs). […] Four images per well were analyzed using a neurite outgrowth module (Molecular Devices, Sunnyvale, CA). We quantified the number of branches and total outgrowth per cell (Figure 1). […] Additionally, nuclear staining by Hoechst allowed the accurate association of branches and processes to their corresponding cell bodies and permitted quantification of total cell numbers in each well.
# [2] = system: cerebellar organotypic cultures; assay: Remyelination in lysolecithin-demyelinated cerebellar slices (qPCR of MBP, PLP, MOG); type: cell-based, rat; conditions: 10 µM, 10-day incubation post-lysolecithin, vs 0.1% DMSO
# Method: In brief, after careful dissection to keep the tissue intact, cerebella of postnatal Days 4 to7 wild-type mouse pups were sectioned at 400 -µm thickness using a Leica VT1000S vibratome. […] When the slices were firmly attached, fresh medium was added to cover the tissue, and the cultures were maintained under these conditions for 4 days. […] Treatments with compounds were initiated at this point, and the cultures maintained for 4 to 10 additional days. Demyelination–remyelination was assessed by real-time polymerase chain reaction (PCR).
# Total RNA was isolated from single-cell cultures or tissue explants using Tri-Zol reagent (Gibco). cDNA was generated from 1 to 3 µg of total RNA by Retrotranscriptase II (Gibco) reaction, and the selected transcripts were detected and amplified by quantitative RT-PCR in an Applied Biosystems (Grand Island, NY) 7500 fast qPCR machine, following the manufacturer’s instructions.
# [3] = system: hPSC-OPCs cocultured with rat dorsal root ganglion neurons; assay: Myelination in hPSC-OPC / rat DRG neuron cocultures (MBP/NF overlap); type: cell-based, human; conditions: compound for first 48 hr, 28 days coculture
# Method: Human pluripotent stem cell-derived OPC (hSC-OPC)/[…] dorsal root ganglion (rDRG) cocultures were carried out as follows: 5,000 hES-OPCs were seeded on top of 14-day-old DRG neuron axons in each well of 96-well black μClear plates (Greiner). The cells were seeded in 100 μl of myelination media (MYL) for each well. Twenty-four hours after seeding, media were gently removed, and a fresh MYL medium that contained the compound of interest at a specific dilution (in 0.1% DMSO) was supplemented to the media (first feeding), and the total volume for each well was 200 μl. For each tested compound dose, four replicates were used. After 48 hr, the media were replenished by removing 100 μl of media, and fresh MYL medium (that contains 0.1% DMSO) was added to the wells. […]
# The ArrayScan VTI HCS reader system (Cellomis, Thermo-scientific) was used for scanning 49 fields for each tested well under 10× objective. […] The four-parameter Hill-Slope curve fittings were generated by GraphPad Prism software using least squares fitting method, and EC50 values were calculated for the three major parameters of oligodendrocyte myelination: number of differentiated oligodendrocytes, areas of myelinated axons in pixels (MBP and NF overlap area), and number of myelinated regions (MBP and NF overlap count). […]
smiles,measurement,setting,value
"C[C@@H](N)[C@H]1CC[C@H](C(=O)Nc2ccncc2)CC1.Cl.Cl [Y0503, trans-4-[(1 R)-1-aminoethyl]-N-4-pyridinylcyclohexanecarboxamide dihydrochloride]",IC50,[1],2700 nM
same,"Expression of MBP, PLP, MOG mRNAs in demyelinated cerebellar slices (qPCR)",[2],significant increase
same,Number and length of MBP-positive oligodendrocyte processes colocalized with NF-positive axons,[3],dose-response effect

# Source: PMC4189421, “Induction of Oligodendrocyte Differentiation and In Vitro Myelination by Inhibition of Rho-Associated Kinase” (ASN NEURO, 2014)
